Measurements: paper PMC10427391, “Identification of Cytochrome P450 2E1 as a Novel Target in Glioma and Development of Its Inhibitor as an Anti‐Tumor Agent” (Advanced Science, 2023)
pIC50, pKd, pKi: −log10 of the molar value. Like-named read-outs stand apart in the source and are kept apart here.

How the values were obtained:
CYP2E1 [1] = molecular target: T1, CYP2E1 (Homo sapiens, UniProt P05181); assay: In vitro inhibition of CYP2E1 (chlorzoxazone as substrate); assay type: biochemical; set-up: A 100 µL microsomal incubation system; from tissue
Method: Chlorzoxazone with a concentration of 62.5 µM and inhibitors with different gradient concentrations were selected to plot the inhibition of chlorzoxazone and to calculate the IC50 of the inhibitor. A Lineweaver–Burk curve was used to determine the mechanism and calculate the K i of inhibitors of CYP2E1.
(§1) A 100 µL microsomal incubation system^[ [44] ^] contained probe drugs for each CYP with different series of concentrations, Q11, phosphate buffer, EDTA, magnesium chloride, and substrates (phenacetin for CYP1A2, coumarin for CYP2A6, bupropion for CYP2B6, paclitaxel for CYP2C8, tolbutamide for CYP2C9, omeprazole for CYP2C19, dextromethorphan for CYP2D6, chlorzoxazone for CYP2E1, midazolam for CYP3A4/5). HPLC‐UV and HPLC‐FLD were used to measure the number of metabolites.
Target sequence in this assay (P05181 whole entry): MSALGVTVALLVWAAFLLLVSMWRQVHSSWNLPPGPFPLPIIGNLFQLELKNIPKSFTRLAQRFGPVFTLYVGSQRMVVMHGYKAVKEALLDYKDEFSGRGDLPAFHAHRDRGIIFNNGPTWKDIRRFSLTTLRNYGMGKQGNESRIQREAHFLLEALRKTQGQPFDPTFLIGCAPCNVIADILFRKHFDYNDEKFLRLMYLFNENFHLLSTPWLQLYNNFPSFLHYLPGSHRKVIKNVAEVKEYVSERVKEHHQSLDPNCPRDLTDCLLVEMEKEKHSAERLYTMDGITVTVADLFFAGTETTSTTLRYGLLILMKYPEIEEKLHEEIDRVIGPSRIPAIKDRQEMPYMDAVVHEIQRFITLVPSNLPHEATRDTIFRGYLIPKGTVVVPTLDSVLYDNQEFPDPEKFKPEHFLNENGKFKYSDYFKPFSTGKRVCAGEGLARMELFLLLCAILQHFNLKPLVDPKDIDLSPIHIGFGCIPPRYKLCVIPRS

[2] = Central inhibitory effect; conditions: clomethiazole: at a dose that inhibited CYP2E1
primary microglia = assay: Primary microglia induced by IL-4 and IL-13: polarization markers and signaling (western blot, immunofluorescence)
Method: Tissues and cells were harvested and lysed with RIPA buffer. The protein concentration was determined using a BCA kit. Samples were separated on 10% SDS‐PAGE gels and blotted onto nitrocellulose membranes (Millipore).The membranes were incubated with primary antibodies at 4 °C overnight, washed three times with TBST, and then incubated with HRP‐conjugated anti‐mouse IgG or anti‐rabbit IgG diluted in TBST containing 1% non‐fat milk at room temperature for 1 h. After final washing with TBST, the membranes were developed by using ECL.

GBM = assay: Intracranial glioma models overall (rats, mice, nude mice)
GL261 cells [3] = assay: Migration (wound assay) of GL261 cells in co-culture with microglia/macrophages; conditions: 24 h
U251 cells [4] = assay: Direct effect on glioma cells (CCK-8), U251; conditions: concentrations below 100 µM
[5] = Bioavailability and pharmacokinetics of Q11 in rats; assay type: in vivo, SD rats
Method: Eight healthy male SD rats were randomly divided into 2 groups (4 rats in each group) using a double‐period self‐cross control principle. The first group was given Q11 (30 mg kg^−1, i.g), and the second group was given Q11 (30 mg kg^−1, i.v.). One week later, a second round of experiments was conducted in which Q11 (30 mg kg^−1, i.v.) was given to the first group of rats and Q11 (30 mg kg^−1, i.g) was given to the second group. Collection of orbital blood was carried out at 0, 2, 7, 15, 30 min and 1, 2, 4, 6, 9, 12, 24 h after Q11 administration.
Thirty healthy male SD rats were randomly divided into three equal groups. Q11 was administrated at 6, 30, or 150 mg kg^−1 (i.g) to these three groups. Collection of orbital blood was carried out at 0, 2, 7, 15, 30 min and 1, 2, 4, 6, 9, 12, 24, 36 h after Q11 administration.

GL261 cells [6] = assay: Cell cycle of GL261 cells in co-culture with primary microglia
CYP2E1 [7] = molecular target: T2, CYP2E1 (Rattus norvegicus, UniProt P05182); assay: In vivo inhibition of CYP2E1 activity by metabolism of diethylnitrosamine (DEN), self-controlled cross-administration; set-up: species or system rats; conditions: DEN 50 mg kg^−1 i.p.
T2 construct: from tissue; host or cells: living rats (whole animal, endogenous enzyme)
T2 sequence (P05182 whole entry): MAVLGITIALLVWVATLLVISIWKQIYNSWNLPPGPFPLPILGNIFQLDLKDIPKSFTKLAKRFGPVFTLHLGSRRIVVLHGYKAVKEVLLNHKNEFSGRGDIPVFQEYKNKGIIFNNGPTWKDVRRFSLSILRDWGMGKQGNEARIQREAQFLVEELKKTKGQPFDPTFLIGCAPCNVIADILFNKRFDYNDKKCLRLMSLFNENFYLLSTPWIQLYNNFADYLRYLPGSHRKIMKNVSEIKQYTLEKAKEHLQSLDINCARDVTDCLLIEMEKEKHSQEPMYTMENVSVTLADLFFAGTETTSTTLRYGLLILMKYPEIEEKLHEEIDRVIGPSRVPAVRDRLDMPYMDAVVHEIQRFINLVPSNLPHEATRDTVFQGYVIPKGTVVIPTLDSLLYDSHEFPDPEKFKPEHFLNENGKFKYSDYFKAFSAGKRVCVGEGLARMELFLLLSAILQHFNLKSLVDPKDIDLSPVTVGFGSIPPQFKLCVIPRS
Method: A self‐controlled cross‐administration experiment was designed based on previous report.^[ [45] ^] In the first round of the experiment, a single intraperitoneal injection of diethylnitrosamine at 50 mg kg^−1 was given in the first week. After a 1‐week interval, the second round of the experiment was conducted, where each rat was given Q11 at 6, 30, or 150 mg kg^−1 (i.g), and then, after 5 min, an intraperitoneal injection of diethylnitrosamine at 50 mg kg^−1 was given. Collection of orbital blood was carried out at 2, 7, 15, 30 min and 1, 2, 4, 6, 9, 12, 24, 36, 48, 60 h.

GL261 cells [8] = assay: Proliferation of glioma cells in indirect co-culture with microglia/macrophages, GL261; conditions: co-cultured with primary microglia, RAW 264.7 or THP-1 macrophages
CYP2E1 [9] = molecular target: T1, CYP2E1; assay: Surface plasmon resonance binding of Q11 to CYP2E1 (Biacore 8k); set-up: purchased Cloud-Clone Corp. Wuhan
Method: Surface Plasma Resonance (SPR) experiments^[ [43] ^] were carried out using the Biacore system (Biacore 8k, Cytiva). Recombinant CYP2E1 protein was purified by Cloud‐Clone Corp. Wuhan. Running buffer contained PBS (2 mM KH2PO4, 10 mM Na2HPO4, 137 mM NaCl, 2.7 mM KCl) with 0.005% Tween‐20, pH 7.4. CYP2E1 protein was diluted to 25 µg mL^−1 in immobilization buffer and bound to a CM5 chip at about 2000RU. Immobilization buffer contained 10 mM sodium acetate, pH 4.0. Samples of compound Q11 were diluted in running buffer with 125, 62.5, 31.25, 15.625, 7.8, 3.9, 1.95 µM and injected at 30 µL min^−1 for 60 s contact time followed by dissociation for 120 s. The data was fitted with Biacore Insight Evaluation software (Version 2.0).
Target sequence in this assay (P05181 whole entry, species assumed): as the sequence (P05181 whole entry) above

C6 = assay: Direct effect on glioma cells (CCK-8), C6; conditions: concentrations below 100 µM
[10] = tested on: glioma induced by C6 cells; assay: Intracranial orthotopic glioma model induced by C6 cells; conditions: SD rat, oral 30 mg kg^−1
CYP2A6 = molecular target: T3, CYP2A6 (Homo sapiens, UniProt P11509); assay: Selectivity, microsomal incubation, CYP2A6 (coumarin as substrate); assay type: biochemical
T3 construct: A 100 µL microsomal incubation system; from tissue
T3 sequence (P11509 1-494): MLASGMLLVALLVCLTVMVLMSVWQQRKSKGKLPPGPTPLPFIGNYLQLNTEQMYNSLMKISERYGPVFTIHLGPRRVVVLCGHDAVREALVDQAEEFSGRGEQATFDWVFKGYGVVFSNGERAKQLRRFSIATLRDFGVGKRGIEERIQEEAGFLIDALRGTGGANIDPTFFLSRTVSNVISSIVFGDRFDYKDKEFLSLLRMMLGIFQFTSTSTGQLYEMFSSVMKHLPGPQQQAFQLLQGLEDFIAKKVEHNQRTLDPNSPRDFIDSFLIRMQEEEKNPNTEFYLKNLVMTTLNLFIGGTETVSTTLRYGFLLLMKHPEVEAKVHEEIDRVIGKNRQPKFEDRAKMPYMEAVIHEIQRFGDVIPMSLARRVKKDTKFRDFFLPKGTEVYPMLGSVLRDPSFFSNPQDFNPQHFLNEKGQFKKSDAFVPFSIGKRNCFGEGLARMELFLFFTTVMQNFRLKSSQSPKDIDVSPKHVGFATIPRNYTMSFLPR
Method: as §1

[11] = tested on: glioma induced by U251‐LUC cells; assay: Intracranial orthotopic glioma model induced by U251-LUC cells; conditions: for bioluminescence in tumor sites: day 14 after transplantation, Q11 at 10 and 30 mg kg^−1; for brain weight / tumor diameter / tumor volume: endpoint day 36 after transplantation
GL261 cells [12] = assay: Apoptosis (Annexin V-FITC/PI) of GL261 cells in co-culture with microglia/macrophages
[13] = tested on: microglia/macrophage of tumor microenvironment; assay: Immunohistochemistry of CD206 and CD86 on tumor tissues; conditions: Q11 group vs model
Method: Paraffin‐embedded specimens were cut into 4‐µm sections. After deparaffinization with xylene and rehydration, antigen retrieval was performed. For immunohistochemistry (IHC), endogenous peroxidase activity was blocked with 3% H2O2 in methanol. Primary antibodies against CYP2E1 (1:200, Abcam, ab28146), Iba‐1 (1:150, Servicebio, China), CD206 (1:150, Servicebio), and CD86 (1:150, Servicebio) were used and results were evaluated blindly by two pathologists and quantified by IPP 6.0 soft.

GL261 cells [14] = assay: Direct effect on glioma cells (CCK-8), GL261; conditions: concentrations below 100 µM
U251 cells [15] = assay: Proliferation of glioma cells in indirect co-culture with microglia/macrophages, U251; conditions: co-cultured with primary microglia, RAW 264.7 or THP-1 macrophages
U251 cells [16] = assay: U251 glioma cells with conditioned medium of CYP2E1-overexpressing HMC-3 cells (proliferation, migration, apoptosis)
[17] = tested on: glioma induced by GL261 cells; assay: Intracranial orthotopic glioma model induced by GL261 cells; conditions: C57BL/6 mouse
[18] = tested on: inflammatory factors in TME; assay: Inflammatory factors in the tumor microenvironment of C6 orthotopic xenograft model; conditions: C6 model rats
[19] = tested on: other CYP enzymes (CYP1A2, CYP2B6, CYP2C8, CYP2C9, CYP2C19, CYP2D6, CYP3A4/5); assay: Selectivity, microsomal incubation, remaining CYPs; assay type: biochemical; conditions: probe substrates
Method: as §1

intracerebral glioma = assay: Kaplan–Meier survival of mice with intracerebral glioma; conditions: Q11 30 mg kg^−1 vs saline, P log-rank = 0.0017
[20] = Long-term Q11 treatment, safety, mice; conditions: 26 weeks
HMC‐3 cells = assay: HMC-3 cells transfected with CYP2E1 plasmids: PPAR-γ and cytokines; conditions: HMC-3 transfected with CYP2E1 plasmids
[21] = Long-term Q11 treatment, safety, rats; conditions: 12 weeks
[22] = In vivo biodistribution / BBB permeability of Q11 (plasma, cortex, hippocampus, HPLC)
[23] = IL-4 and IL-13 10 ng mL^−1, 24 h
[24] = Q11 medium- and high-dose groups vs IL-4/IL-13 group

With `Cc1ncsc1CCCl` [clomethiazole, reference compound] the pIC50 (CYP2E1 [1]; chlorzoxazone 62.5 µM, read-out: IC50 of inhibition on CYP2E1) was 4.41 and the central inhibitory effect [2] was “significant central inhibitory effect”.
In the case of `O=C(Nc1ccccc1)c1cc([N+](=O)[O-])ccc1Cl` [GW9662, reference compound], the “PPAR-γ expression in presence of rosiglitazone” value (primary microglia; antagonist of PPARγ, blocked the ability of rosiglitazone) was “downregulated”.
In the case of `CC(=O)c1scnc1C` [Compound Q11, 1‐(4‐methyl‐5‐thialzolyl) ethanone], the tumor-induced weight loss (GBM; intracranial xenografts) was “obviously improved”, the “inhibitory effect on glioma growth compared with TMZ” value (GBM; orthotopic glioma models) was “superior to that of TMZ” and the “migration of GL261 cells” value (GL261 cells [3]) was “restrained migration”. For the same molecule, the “direct killing of U251 cells” value (U251 cells [4]) was “did not directly kill”, the Tmax ([5]; male, SD, rat, blood, 30 mg kg^−1, oral administration, read-out: mean T max) was 0.45 h and the half-life ([5]; male, SD, rat, blood, 30 mg kg^−1, oral administration, read-out: mean t 1/2 (converted)) was 3.05 h. For the same molecule, the bioavailability ([5]; male, SD, rat, blood, oral vs intravenous, 30 mg kg^−1) was 94.7%, the “dose dependence of pharmacokinetic parameters” value ([5]; oral, dose 6 to 150 mg kg^−1) was “proportional changes” and the pIC50 (CYP2E1 [1]) was 5.79. For the same molecule, the pKi (CYP2E1 [1]) was 6.05, the “type of inhibition of CYP2E1” value (CYP2E1 [1]; Lineweaver–Burk plot) was “competitive‐noncompetitive mixed‐type inhibitor” and the “cell cycle of GL261 cells” value (GL261 cells [6]) was “arrested the cell cycle in S phase”. For the same molecule, the “inhibition ratio in terms of clearance (CL) of diethylnitrosamine (DEN)” value (“inhibition ratio in terms of clearance” for short) (CYP2E1 [7]; Q11 6 mg kg^−1 i.g.) was 63.98%, the “inhibition ratio in terms of clearance” value (CYP2E1 [7]; Q11 30 mg kg^−1 i.g.) was 79.63% and the “inhibition ratio in terms of clearance” value (CYP2E1 [7]; Q11 150 mg kg^−1 i.g.) was 85.42%. For the same molecule, the “proliferation of GL261 cells in co-culture” value (GL261 cells [8]) was “significantly inhibited”, the pKd (CYP2E1 [9]) was 5.15 and the “direct killing of C6 cells” value (C6) was “did not directly kill”. For the same molecule, the “growth of tumor (brain weight, tumor diameter, tumor weight)” value [10] was “significantly suppressed”, the pIC50 (CYP2A6) was 4.12 and the “bioluminescence in tumor sites” value [11] was “lesser bioluminescence”. For the same molecule, the brain weight [11] was “markedly suppressed”, the tumor diameter [11] was “markedly suppressed” and the tumor volume [11] was “markedly suppressed”. For the same molecule, the “apoptosis of GL261 cells” value (GL261 cells [12]) was “promoted apoptosis”, the “CD86 (M1 marker) positive cells” value [13] was “increased significantly” and the “number of CD206 (M2 marker) positive cells” value [13] was “significantly reduced”. For the same molecule, the central inhibitory effect [2] was “does not show a central inhibitory effect”, the “direct killing of GL261 cells” value (GL261 cells [14]) was “did not directly kill” and the “proliferation of U251 cells in co-culture” value (U251 cells [15]) was “significantly inhibited”. The “tumor-promoting effects of upregulating CYP2E1 in HMC-3 (proliferation, migration, apoptosis of U251)” value (U251 cells [16]) was “reversed”, the “growth of glioma (brain weight, tumor diameter, volumes)” value [17] was “significantly inhibited” and the “M1-like inflammatory factors (IL-1β, TNF-α)” value [18] was “increased”. The “M2-like inflammatory factors (IL-4, TGF-β, IL-10, VEGFB, IL-6)” value [18] was “significantly decreased”, the “inhibition of other CYP enzymes” value [19] was “no inhibition” and the mean survival time (intracerebral glioma) was 32 days. For the same molecule, the “Arg-1 (M2 marker) expression” value (primary microglia; [23]) was “significantly reduced”, the “iNOS (M1 marker) expression” value (primary microglia; [23]) was “increased” and the “p-STAT-1 and p-NF-κB” value (primary microglia; [24]) was “significantly increased”. The “p-STAT-3 and p-STAT-6” value (primary microglia; [24]) was “significantly decreased”, the PPAR-γ expression (primary microglia; after induction by IL-4 and IL-13) was “significantly inhibited” and the “adverse reactions on long-term treatment” value [20] was “no adverse reactions”. For the same molecule, the “changes caused by CYP2E1 overexpression (PPAR-γ, IL-4, IL-10, TGFβ up; IL-1α, IL-1β down)” value (HMC‐3 cells) was “significantly blocked the changes”, the “adverse reactions on long-term treatment” value [21] was “no adverse reactions” and the “plasma concentration at peak” value ([22]; SD rats, 30 mg kg^−1 intragastric, about 1 h) was 14.75 ng/mL. For the same molecule, the “blood brain barrier (BBB) permeability” value ([22]; SD rats, 30 mg kg^−1 intragastric, cortex and hippocampus parallel to plasma) was “capable of penetrating BBB”, the Tmax ([22]; female, SD, rat, in vivo, po, 30 mg/kg) was ~1 h and the concentration at 4 h ([22]; female, SD, rat, plasma, oral, 30 mg kg^−1) was 9.21 ng/mL.
For `Cn1nnc2c(C(N)=O)ncn2c1=O` [TMZ, temozolomide, reference compound], the “bioluminescence in tumor sites” value [11] was “lesser bioluminescence”, the brain weight [11] was “markedly suppressed” and the tumor diameter [11] was “markedly suppressed”. For the same molecule, the tumor volume [11] was “markedly suppressed”.
For `CN(CCOc1ccc(CC2SC(=O)NC2=O)cc1)c1ccccn1` (centres unmarked) [Rosiglitazone, reference compound], the “effect on the action of Q11 (PPAR-γ dependence)” value (primary microglia; agonist of PPAR-γ added to Q11) was “completely blocked the effect of Q11”.
